This assay deals with T1, P2X7 (UniProt Q99572).
T1 sequence (Q99572 1-595): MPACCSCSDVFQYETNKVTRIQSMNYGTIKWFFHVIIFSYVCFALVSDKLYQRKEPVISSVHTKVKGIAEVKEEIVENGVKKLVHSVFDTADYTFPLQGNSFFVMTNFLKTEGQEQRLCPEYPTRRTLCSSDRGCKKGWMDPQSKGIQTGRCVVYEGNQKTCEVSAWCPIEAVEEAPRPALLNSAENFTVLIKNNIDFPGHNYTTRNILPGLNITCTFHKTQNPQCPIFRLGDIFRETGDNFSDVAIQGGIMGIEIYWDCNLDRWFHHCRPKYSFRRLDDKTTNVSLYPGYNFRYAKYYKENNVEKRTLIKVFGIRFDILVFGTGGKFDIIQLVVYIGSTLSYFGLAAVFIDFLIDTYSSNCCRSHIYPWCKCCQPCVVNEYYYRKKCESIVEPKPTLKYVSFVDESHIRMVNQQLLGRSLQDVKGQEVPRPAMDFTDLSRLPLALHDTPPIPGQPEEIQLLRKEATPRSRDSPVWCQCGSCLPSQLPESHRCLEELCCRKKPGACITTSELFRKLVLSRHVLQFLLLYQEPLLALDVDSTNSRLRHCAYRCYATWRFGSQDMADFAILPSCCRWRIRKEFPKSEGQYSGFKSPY
Nature of the assay: P2X7 activity of Table 1. It counts as cell-based. The note with it: pIC50 values for P2X7. The procedure:
Stock solutions of compounds were prepared from powders as a 10 mM DMSO stock solution. These solutions were stored at RT during the two week period of these experiments to prevent freeze-thaw of the DMSO stocks. The DMSO stocks were added to the appropriate assay buffer at a concentration of 10 μM, and then diluted serially to the final concentrations that were tested. […] The aqueous solutions of compounds as well as ATP (Sigma A7699) and BzATP (Sigma B6396) were prepared fresh for each day of experiment.
1321N1 cells stably expressing the full length human P2X7 gene (1321N1-hP2X7) and HEK293 cells stably expressing the full length rat P2X7 gene (HEK293-rP2X7) were obtained from the Roche Cell Culture Facility. 1321N1-hP2X7 cells were grown in Dulbecco's Modified Eagle's Medium (DMEM) high glucose supplemented with 10% FBS and 250 μg/mL G418. HEK293-rP2X7 cells were grown in DMEM/F-12 supplemented with 10% FBS, 1 mM CaCl2, 2 mM MgCl2, 2 mM L-Glutamine and 500 μg/ml G418. Cells were split such that they never became >70% confluent.
On the day prior to the experiment, 1321N1-hP2X7 or HEK293-rP2X7 cells were released into suspension with calcium-free PBS+Versene and washed by centrifugation with calcium-free PBS to remove the Versene. Cells were resuspended in growth medium at a density of 2.5×10^5 cells/mL and seeded into black walled, clear bottom 96 well plates (50,000 cells/well) approximately 18 hr prior to intracellular calcium flux experiments.
On the day of the experiment, plates were washed with FLIPR buffer (calcium- and magnesium-free Hank's Balanced Salt Solution (HBSS) supplemented with 10 mM Hepes, 2.5 mM probenecid and 2 mM calcium chloride) using a BIO-TEK 96 channel plate washer and incubated with […] fluo-3 dye at 37° C. for one hr. The dye was then removed by plate washing and the cells were allowed to equilibrate for 20 min at room temperature with antagonist or vehicle (FLIPR buffer). Agonist (100 μM BzATP final concentration for hP2X7; 5 μM BzATP final concentration or rP2X7) was added online with the FLIPR and fluorescence measurements made at 1 sec intervals for 60 sec followed by 3 sec intervals for a further 4 min (5 min total). A final addition of 5 μM ionomycin was made and the maximal BzATP-evoked fluorescence normalized to the maximal ionomycin-evoked fluorescence.
As a reminder, the pIC50 is −log10 of the IC50, conventionally taken in molar units. Low values mean a high IC50, high ones a low IC50. Regarding `Cc1ccc(-n2cccn2)cc1NC(=O)C1=CNC(=O)C[C@H]1c1ccc(F)cc1` [Compound 11, (S)-4-(4-Fluoro-phenyl)-6-oxo-1,4,5,6-tetrahydro-pyridine-3-carboxylic acid (2-methyl-5-pyrazol-1-yl-phenyl)-amide], the pIC50 is 7.763. `Cc1cc(-c2ccc(C)c(NC(=O)C3=CNC(=O)C[C@H]3c3ccc(F)cc3)c2)n(CCO)n1` [Compound 12, (S)-4-(4-Fluoro-phenyl)-6-oxo-1,4,5,6-tetrahydro-pyridine-3-carboyxlic acid {5-[2-(2-hydroxy-ethyl)-5-methyl-2H-pyrazol-3-yl]-2-methyl-phenyl}-amide]: the pIC50 is given as 6.913. With `Cc1ccc(-c2ccnn2C)cc1NC(=O)C1=CNC(=O)C[C@H]1c1ccc(F)cc1` [Compound 13, (S)-4-(4-Fluoro-phenyl)-6-oxo-1,4,5,6-tetrahydro-pyridine-3-carboxylic acid [2-methyl-5-(2-methyl-2H-pyrazol-3-yl)-phenyl]-amide], the pIC50 was 7.033. On to `CCc1cc(-c2ccc(C)c(NC(=O)C3=CNC(=O)C[C@H]3c3ccc(F)cc3)c2)[nH]n1` [Compound 14, (S)-4-(4-Fluoro-phenyl)-6-oxo-1,4,5,6-tetrahydro-pyridine-3-carboxylic acid [5-(5-ethyl-2H-pyrazol-3-yl)-2-methyl-phenyl]-amide], for which the pIC50 is 6.913. For `Cc1ccc(-c2[nH]nc(C)c2C)cc1NC(=O)C1=CNC(=O)C[C@H]1c1ccc(F)cc1` [Compound 15, (S)-4-(4-Fluoro-phenyl)-6-oxo-1,4,5,6-tetrahydro-pyridine-3-carboxylic acid [5-(4,5-dimethyl-2H-pyrazol-3-yl)-2-methyl-phenyl]-amide], the pIC50 amounted to 7.79. The compound `Cc1ccc(-n2ncc(=O)[nH]c2=O)cc1NC(=O)C1=CNC(=O)C[C@H]1c1ccc(F)cc1` [Compound 16, (S)-4-(4-Fluoro-phenyl)-6-oxo-1,4,5,6-tetrahydro-pyridine-3-carboxylic acid [5-(3,5-dioxo-4,5-dihydro-3H-[1,2,4]triazin-2-yl)-2-methyl-phenyl]-amide] registered a pIC50 of 7.23.

`CCc1cc(-c2cccc(NC(=O)C3=CNC(=O)C[C@H]3c3ccc(F)cc3)c2)n[nH]1` [Compound 17, (S)-4-(4-Fluoro-phenyl)-6-oxo-1,4,5,6-tetrahydro-pyridine-3-carboxylic acid [3-(5-ethyl-1H-pyrazol-3-yl)-phenyl]-amide] displayed a pIC50 of 6.073. Compound `Cc1cc(-c2cccc(NC(=O)C3=CNC(=O)C[C@H]3c3ccc(F)cc3)c2)nn1C` [Compound 18, (S)-4-(4-Fluoro-phenyl)-6-oxo-1,4,5,6-tetrahydro-pyridine-3-carboxylic acid [3-(1,5-dimethyl-1H-pyrazol-3-yl)-phenyl]-amide] had a pIC50 of 5.72. In turn, `Cc1ccc(-c2cc(C)n(C[C@@H](O)CO)n2)cc1NC(=O)C1=CNC(=O)C[C@H]1c1ccc(F)cc1` [Compound 19, (S)-4-(4-Fluoro-phenyl)-6-oxo-1,4,5,6-tetrahydro-pyridine-3-carboxylic acid {5-[1-((R)-2,3-dihydroxy-propyl)-5-methyl-1H-pyrazol-3-yl]-2-methyl-phenyl}-amide] had a pIC50 of 7.423. `Cc1cc(-c2cccc(NC(=O)C3=CNC(=O)C[C@H]3c3ccc(F)cc3)c2)n(C)n1` [Compound 20, (S)-4-(4-Fluoro-phenyl)-6-oxo-1,4,5,6-tetrahydro-pyridine-3-carboxylic acid [3-(2,5-dimethyl-2H-pyrazol-3-yl)-phenyl]-amide] returned a pIC50 of 5.31. `Cc1cc(-c2ccc(C)c(NC(=O)C3=CNC(=O)C[C@H]3c3ccc(F)cc3)c2)n(C)n1` [Compound 21, (S)-4-(4-Fluoro-phenyl)-6-oxo-1,4,5,6-tetrahydro-pyridine-3-carboxylic acid [5-(2,5-dimethyl-2H-pyrazol-3-yl)-2-methyl-phenyl]-amide] had a negative-log IC50 (pIC50) of 6.525. `Cc1cc(-c2ccc(C)c(NC(=O)C3=CNC(=O)C[C@H]3c3cccc(F)c3)c2)n[nH]1` [Compound 22, (S)-4-(3-Fluoro-phenyl)-6-oxo-1,4,5,6-tetrahydro-pyridine-3-carboxylic acid [2-methyl-5-(5-methyl-1H-pyrazol-3-yl)-phenyl]-amide] had a pIC50 of 7.75.

Compound `Cc1cc(-c2ccc(C)c(NC(=O)C3=CNC(=O)C[C@H]3c3ccc(F)cc3)c2)on1` [Compound 26, (S)-4-(4-Fluoro-phenyl)-6-oxo-1,4,5,6-tetrahydro-pyridine-3-carboxylic acid [2-methyl-5-(3-methyl-isoxazol-5-yl)-phenyl]-amide] had a pIC50 of 7.265. `Cc1ncn(-c2ccc(C)c(NC(=O)C3=CNC(=O)C[C@H]3c3ccc(F)cc3)c2)n1` [Compound 27, (S)-4-(4-Fluoro-phenyl)-6-oxo-1,4,5,6-tetrahydro-pyridine-3-carboxylic acid [2-methyl-5-(3-methyl-[1,2,4]triazol-1-yl)-phenyl]-amide] gave a pIC50 of 6.28. On to `Cc1cn(-c2ccc(C)c(NC(=O)C3=CNC(=O)C[C@H]3c3ccc(F)cc3)c2)nn1` [Compound 28, (S)-4-(4-Fluoro-phenyl)-6-oxo-1,4,5,6-tetrahydro-pyridine-3-carboxylic acid [2-methyl-5-(4-methyl-[1,2,3]triazol-1-yl)-phenyl]-amide], for which the negative-log IC50 (pIC50) was 7.145. The compound `Cc1cnn(-c2ccc(C)c(NC(=O)C3=CNC(=O)C[C@H]3c3ccc(F)cc3)c2)c1` [Compound 29, (S)-4-(4-Fluoro-phenyl)-6-oxo-1,4,5,6-tetrahydro-pyridine-3-carboxylic acid [2-methyl-5-(4-methyl-pyrazol-1-yl)-phenyl]-amide] yielded a pIC50 of 7.99. In turn, `Cc1nnc(-c2ccc(C)c(NC(=O)C3=CNC(=O)C[C@H]3c3ccc(F)cc3)c2)o1` [Compound 30, (S)-4-(4-Fluoro-phenyl)-6-oxo-1,4,5,6-tetrahydro-pyridine-3-carboxylic acid [2-methyl-5-(5-methyl-[1,3,4]oxadiazol-2-yl)-phenyl]-amide] displayed a negative-log IC50 (pIC50) of 6.275. The result for `Cc1cc(-c2ccc(C)c(NC(=O)C3=CN(C)C(=O)C[C@H]3c3ccc(F)cc3)c2)n[nH]1` [Compound 31, (S)-4-(4-Fluoro-phenyl)-1-methyl-6-oxo-1,4,5,6-tetrahydro-pyridine-3-carboxylic acid [2-methyl-5-(5-methyl-1H-pyrazol-3-yl)-phenyl]-amide] reads 7.35; that for `CCCn1nccc1-c1ccc(C)c(NC(=O)C2=CNC(=O)C[C@H]2c2ccc(F)cc2)c1` [Compound 32, (S)-4-(4-Fluoro-phenyl)-6-oxo-1,4,5,6-tetrahydro-pyridine-3-carboxylic acid [2-methyl-5-(2-propyl-2H-pyrazol-3-yl)-phenyl]-amide], 6.885; that for `Cc1cc(-c2ccc(Cl)c(NC(=O)C3=CNC(=O)C[C@H]3c3ccc(F)cc3)c2)n[nH]1` [Compound 33, (S)-4-(4-Fluoro-phenyl)-6-oxo-1,4,5,6-tetrahydro-pyridine-3-carboxylic acid [2-chloro-5-(5-methyl-1H-pyrazol-3-yl)-phenyl]-amide], 7.4067. The result for `Cc1ccc(-c2nnc(C)n2C)cc1NC(=O)C1=CNC(=O)C[C@H]1c1ccc(F)cc1` [Compound 34, (S)-4-(4-Fluoro-phenyl)-6-oxo-1,4,5,6-tetrahydro-pyridine-3-carboxylic acid [5-(4,5-dimethyl-4H-[1,2,4]triazol-3-yl)-2-methyl-phenyl]-amide] reads 7.78; that for `Cc1cc(Cl)c(CN2CCOC2=O)cc1NC(=O)C1=CNC(=O)C[C@H]1c1ccc(F)cc1` [Compound 35, (S)-4-(4-Fluoro-phenyl)-6-oxo-1,4,5,6-tetrahydro-pyridine-3-carboxylic acid [4-chloro-2-methyl-5-(2-oxo-oxazolidin-3-ylmethyl)-phenyl]-amide], 8.135.

For the origin of these results see patent publication US8163929B2, “Dihydropyridone amides as P2X7 modulators” (Roche Palo Alto LLC, priority 2008, dated 2012).
